What was measured:
[1] = DRUGMATRIX: Sodium/nucleoside co-transporter radioligand binding (ligand: nitrobenzylthioinosine); assay type: cell membranes, Cavia porcellus, Dunkin-Hartley, Cerebral cortex, Membrane; conditions: Not Active = under 50% inhibition at 10 µM
[2] = DRUGMATRIX: ATPase, Na+/K+ enzyme inhibition (substrate: ATP); assay type: tissue-based, Sus scrofa, Heart; conditions: Not Active = under 50% inhibition at 10 µM
[3] = DRUGMATRIX: beta-Lactamase enzyme inhibition (substrate: Nitrocefin); set-up: species or system Bacillus cereus; conditions: Not Active = under 50% inhibition at 10 µM
[4] = molecular target: T1, Cholecystokinin receptor type A (Homo sapiens, UniProt P32238); assay type: cell membranes, Membrane; conditions: 1321-n1; also: in other assays of this panel Not Active means under 50% inhibition at 10 µM
T1 sequence (P32238 whole entry): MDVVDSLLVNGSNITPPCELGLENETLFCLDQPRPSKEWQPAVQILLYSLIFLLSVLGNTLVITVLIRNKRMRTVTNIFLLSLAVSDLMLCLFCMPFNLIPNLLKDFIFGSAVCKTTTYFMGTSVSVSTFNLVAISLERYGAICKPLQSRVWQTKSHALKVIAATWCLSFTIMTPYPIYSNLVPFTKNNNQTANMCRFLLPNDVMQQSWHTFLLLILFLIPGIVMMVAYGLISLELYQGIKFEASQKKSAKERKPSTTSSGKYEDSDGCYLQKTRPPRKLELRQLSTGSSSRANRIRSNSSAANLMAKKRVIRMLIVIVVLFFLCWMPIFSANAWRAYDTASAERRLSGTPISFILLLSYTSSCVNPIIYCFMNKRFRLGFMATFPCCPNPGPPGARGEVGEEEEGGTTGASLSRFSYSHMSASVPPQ

[5] = molecular target: Sodium-dependent dopamine transporter (Homo sapiens, UniProt Q01959); test: DRUGMATRIX: Dopamine Transporter radioligand binding (ligand: [125I] RTI-55); assay type: cell membranes, CHO-K1, Membrane; conditions: cho-k1; Not Active = under 50% inhibition at 10 µM
Sodium-dependent dopamine transporter, sequence (Q01959 whole entry): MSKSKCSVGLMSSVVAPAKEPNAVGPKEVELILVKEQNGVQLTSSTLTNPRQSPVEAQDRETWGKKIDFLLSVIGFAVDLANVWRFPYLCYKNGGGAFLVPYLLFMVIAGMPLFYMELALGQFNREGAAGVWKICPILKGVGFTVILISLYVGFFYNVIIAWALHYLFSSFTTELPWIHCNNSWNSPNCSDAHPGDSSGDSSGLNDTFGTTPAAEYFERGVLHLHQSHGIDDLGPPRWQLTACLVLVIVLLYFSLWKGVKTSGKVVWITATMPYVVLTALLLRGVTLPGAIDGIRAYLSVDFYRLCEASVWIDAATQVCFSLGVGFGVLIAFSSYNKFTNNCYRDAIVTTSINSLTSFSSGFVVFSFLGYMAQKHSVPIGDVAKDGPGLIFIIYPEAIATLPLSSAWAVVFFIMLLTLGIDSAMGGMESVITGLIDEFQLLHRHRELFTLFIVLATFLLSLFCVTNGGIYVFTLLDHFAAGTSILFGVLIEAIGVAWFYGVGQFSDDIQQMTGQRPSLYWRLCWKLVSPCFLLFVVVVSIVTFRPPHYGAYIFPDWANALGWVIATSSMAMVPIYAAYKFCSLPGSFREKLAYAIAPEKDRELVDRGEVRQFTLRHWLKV

[6] = molecular target: Melanocortin receptor 5 (Homo sapiens, UniProt P33032); assay type: cell membranes, HEK293, Membrane; conditions: hek293; also: in other assays of this panel Not Active means under 50% inhibition at 10 µM
Melanocortin receptor 5, sequence (P33032 whole entry): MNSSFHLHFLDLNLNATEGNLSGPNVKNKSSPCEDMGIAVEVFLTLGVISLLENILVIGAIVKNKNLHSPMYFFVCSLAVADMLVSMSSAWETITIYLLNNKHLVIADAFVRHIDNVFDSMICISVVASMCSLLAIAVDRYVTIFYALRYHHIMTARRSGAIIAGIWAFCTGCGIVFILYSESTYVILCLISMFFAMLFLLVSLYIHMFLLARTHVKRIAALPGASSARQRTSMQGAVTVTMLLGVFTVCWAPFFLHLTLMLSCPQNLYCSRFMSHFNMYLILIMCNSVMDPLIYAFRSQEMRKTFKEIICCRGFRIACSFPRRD

CO[C@@]12[C@H](COC(N)=O)C3=C(C(=O)C(C)=C(N)C3=O)N1C[C@@H]1N[C@@H]12 [MITOMYCIN]
Not Active: IC50 [1] | Ki [1] | IC50 [2] | Ki [2] | IC50 [3] | Ki [3] | IC50 [4] | IC50 [5] | IC50 [6]

CCOc1cc(N)c(Cl)cc1C(=O)NCC1CN(Cc2ccc(F)cc2)CCO1 (stereo not drawn) [MOSAPRIDE]
Not Active: IC50 [1] | Ki [1] | IC50 [2] | Ki [2] | IC50 [3] | Ki [3] | IC50 [4] | IC50 [5] | IC50 [6]

CCN(CC)N=O [N-NITROSODIETHYLAMINE]
Not Active: IC50 [1] | Ki [1] | IC50 [2] | Ki [2] | IC50 [3] | Ki [3] | IC50 [4] | IC50 [5] | IC50 [6]

O=C1CC[C@@]2(O)[C@H]3Cc4ccc(O)c5c4[C@@]2(CCN3CC2CC2)[C@H]1O5 [NALTREXONE]
Not Active: IC50 [1] | Ki [1] | IC50 [2] | Ki [2] | IC50 [3] | Ki [3] | IC50 [4] | IC50 [5] | IC50 [6]

Oc1ccc(/C=C/c2cc(O)cc(O)c2)cc1 [RESVERATROL]
Not Active: IC50 [1] | Ki [1] | IC50 [2] | Ki [2] | IC50 [3] | Ki [3] | IC50 [4] | IC50 [5] | IC50 [6]

CC(N)C12CC3CC(CC(C3)C1)C2 (stereo not drawn) [RIMANTADINE]
Not Active: IC50 [1] | Ki [1] | IC50 [2] | Ki [2] | IC50 [3] | Ki [3] | IC50 [4] | IC50 [5] | IC50 [6]

CS(=O)(=O)c1ccc(C2=C(c3ccccc3)C(=O)OC2)cc1 [ROFECOXIB]
Not Active: IC50 [1] | Ki [1] | IC50 [2] | Ki [2] | IC50 [3] | Ki [3] | IC50 [4] | IC50 [5] | IC50 [6]

C=CCc1ccc2c(c1)OCO2 [SAFROLE]
Not Active: IC50 [1] | Ki [1] | IC50 [2] | Ki [2] | IC50 [3] | Ki [3] | IC50 [4] | IC50 [5] | IC50 [6]

CCC(C)(C)C(=O)O[C@H]1C[C@@H](C)C=C2C=C[C@H](C)[C@H](CC[C@@H]3C[C@@H](O)CC(=O)O3)[C@H]21 [SIMVASTATIN]
Not Active: IC50 [1] | Ki [1] | IC50 [2] | Ki [2] | IC50 [3] | Ki [3] | IC50 [4] | IC50 [5] | IC50 [6]

O=[As][O-].[Na+] [SODIUM ARSENITE]
Not Active: IC50 [1] | Ki [1] | IC50 [2] | Ki [2] | IC50 [3] | Ki [3] | IC50 [4] | IC50 [5] | IC50 [6]

C1CCN2C[C@@H]3C[C@@H](CN4CCCC[C@@H]34)[C@H]2C1 [SPARTEINE]
Not Active: IC50 [1] | Ki [1] | IC50 [2] | Ki [2] | IC50 [3] | Ki [3] | IC50 [4] | IC50 [5] | IC50 [6]

C[C@]12CCC(=O)C[C@@H]1CC[C@@H]1[C@@H]2CC[C@]2(C)[C@@H](O)CC[C@@H]12 [STANOLONE]
Not Active: IC50 [1] | Ki [1] | IC50 [2] | Ki [2] | IC50 [3] | Ki [3] | IC50 [4] | IC50 [5] | IC50 [6]

Cc1cn([C@H]2C=C[C@@H](CO)O2)c(=O)[nH]c1=O [STAVUDINE]
Not Active: IC50 [1] | Ki [1] | IC50 [2] | Ki [2] | IC50 [3] | Ki [3] | IC50 [4] | IC50 [5] | IC50 [6]

CC1(C)[C@H](C(=O)O)N2C(=O)C[C@H]2S1(=O)=O [SULBACTAM]
Not Active: IC50 [1] | Ki [1] | IC50 [2] | Ki [2] | IC50 [3] | Ki [3] | IC50 [4] | IC50 [5] | IC50 [6]

Cc1ccnc(NS(=O)(=O)c2ccc(N)cc2)n1 [SULFAMERAZINE]
Not Active: IC50 [1] | Ki [1] | IC50 [2] | Ki [2] | IC50 [3] | Ki [3] | IC50 [4] | IC50 [5] | IC50 [6]

Cc1nnc(NS(=O)(=O)c2ccc(N)cc2)s1 [SULFAMETHIZOLE]
Not Active: IC50 [1] | Ki [1] | IC50 [2] | Ki [2] | IC50 [3] | Ki [3] | IC50 [4] | IC50 [5] | IC50 [6]

O=C(O)c1cc(/N=N/c2ccc(S(=O)(=O)Nc3ccccn3)cc2)ccc1O [SULFASALAZINE]
Not Active: IC50 [1] | Ki [1] | IC50 [2] | Ki [2] | IC50 [3] | Ki [3] | IC50 [4] | IC50 [5] | IC50 [6]

Reference: ChEMBL document CHEMBL1909046, “DrugMatrix in vitro pharmacology data”
